Laboratory results taken from paper PMC3356457 (Nature, 2012).
pEC50, pKi: −log10 of the molar value. Where two headings read alike, the source gives them in different places.

How the values were obtained:
hKOR E297A = hKOR E297A (Homo sapiens, UniProt P41145, E297A); type: binding
KOR [1] = molecular target: KOR (Homo sapiens, UniProt P41145); type: cell-based
KOR [2] = conditions: cited from earlier work
[3] = cited from earlier work
[4] = cited from earlier work; remark: listed apart in the source
KOR [5] = conditions: agonist; cited from earlier work
KOR [6] = conditions: cited from earlier work; remark: listed apart in the source
KOR [7] = conditions: cited from earlier work; remark: listed apart in the source

hKOR E297A, sequence (P41145 whole entry E297A): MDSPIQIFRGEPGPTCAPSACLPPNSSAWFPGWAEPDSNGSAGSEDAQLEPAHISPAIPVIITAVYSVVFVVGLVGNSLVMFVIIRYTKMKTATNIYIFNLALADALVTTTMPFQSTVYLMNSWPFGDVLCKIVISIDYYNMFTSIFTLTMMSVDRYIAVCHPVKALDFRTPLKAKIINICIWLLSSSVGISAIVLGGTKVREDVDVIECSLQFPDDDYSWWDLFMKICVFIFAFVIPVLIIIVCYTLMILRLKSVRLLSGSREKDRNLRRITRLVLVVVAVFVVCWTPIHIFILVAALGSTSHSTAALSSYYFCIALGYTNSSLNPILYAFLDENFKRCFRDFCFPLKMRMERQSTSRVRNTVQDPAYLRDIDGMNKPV
KOR (Homo sapiens, UniProt P41145), sequence (P41145 whole entry): as the sequence (P41145 whole entry E297A) above, with A297E counted along it

NC(N)=Nc1ccc2[nH]c3c(c2c1)C[C@@]1(O)[C@H]2Cc4ccc(O)c5c4[C@@]1(CCN2CC1CC1)[C@H]3O5 [GNTI]
Effect of Glu297Ala mutation on binding (hKOR E297A): significant drop

CC(C)[C@@H](CN1CC[C@@](C)(c2cccc(O)c2)[C@@H](C)C1)NC(=O)[C@H]1Cc2ccc(O)cc2CN1 [JDTic, (3R)-7-hydroxy-N-[(1S)-1-(((3R,4R)-4-(3-hydroxyphenyl)-3,4-dimethyl-1-piperidinyl)methyl)-2-methylpropyl]-1,2,3,4-tetrahydro-3-isoquinoline-carboxamide]
Agonist activity, Gi-mediated (canonical) signaling (KOR [1]): devoid of agonist activity
Blockade of the effects of agonist U69593, Gi-mediated signaling (KOR [1]): completely blocked
Effect on κ-agonist U50,488-induced antinociception (KOR [2]): blocks
Activity in rodent models of depression, anxiety, stress-induced cocaine relapse, and nicotine withdrawal [3]: robust activity
Effect on μ-agonist induced analgesia [4]: not antagonizing
Effect of Glu297Ala mutation on binding (hKOR E297A): did not affect

COC(=O)[C@@H]1C[C@H](OC(=O)CSC#N)C(=O)[C@H]2[C@@]1(C)CC[C@H]1C(=O)O[C@H](c3ccoc3)C[C@]21C [RB-64, 22-thiocyanatosalvinorin A]
pEC50 (KOR [5]): 10.11
pKi (KOR [6]): 9.23
